By MIC is commonly meant the least concentration at which growth counts as inhibited. A high value points to weaker potency.

≈ marks a conversion by molar mass, not a printed value.

Test [1] relates to Micrococcus luteus. The test can be described thus: Antibacterial activity against Micrococcus luteus MTCC 106 measured after 24 hrs by NCCL protocol based broth dilution method. The format is functional. Particulars: MTCC 106, 24 h. In general terms: Dilution methods test growth across graded concentrations, often in twofold steps.
The test system of test [2] is Salmonella typhi. The test can be described thus: Antibacterial activity against Salmonella typhi measured after 24 hrs by NCCL protocol based broth dilution method. It counts as functional, Salmonella enterica subsp. enterica serovar Typhi. The conditions noted are these: Salmonella enterica.
Test [3] has as its system Candida albicans. The test can be described thus: Antifungal activity against Candida albicans MTCC 3017 measured after 48 hrs by NCCL protocol based broth dilution method. It counts as functional. The conditions noted are these: MTCC 3017, 48 h.
In test [4] the test system is Salmonella paratyphi. As to the kind of experiment: Antibacterial activity against Salmonella paratyphi measured after 24 hrs by NCCL protocol based broth dilution method. Particulars: Salmonella enterica. It counts as functional, Salmonella enterica subsp. enterica serovar Paratyphi A.
For test [5], the system named is Staphylococcus aureus. As to the kind of experiment: Antibacterial activity against Staphylococcus aureus MTCC 3160 measured after 24 hrs by NCCL protocol based broth dilution method. The format is functional. The conditions noted are these: MTCC 3160, 24 h.
The subject of test [6] is Klebsiella pneumoniae. As to the kind of experiment: Antibacterial activity against Klebsiella pneumoniae MTCC 3384 assessed as zone of inhibition at 100 ug/well measured after 24 hrs by agar well diffusion method. The format is functional. The conditions noted are these: MTCC 3384, 24 h, read-out: DIZ. A general note: In agar diffusion tests the substance spreads into inoculated agar from a disc or well.

Test [7] deals with Micrococcus luteus. The test can be described thus: Antibacterial activity against Micrococcus luteus MTCC 106 assessed as zone of inhibition at 100 ug/well measured after 24 hrs by agar well diffusion method. The conditions noted are these: MTCC 106, 24 h, read-out: DIZ. The format is functional.
Test [8] deals with Salmonella paratyphi. As to the kind of experiment: Antibacterial activity against Salmonella paratyphi assessed as zone of inhibition at 100 ug/well measured after 24 hrs by agar well diffusion method. It counts as functional, Salmonella enterica subsp. enterica serovar Paratyphi A. The conditions noted are these: Salmonella enterica, read-out: DIZ.
In test [9] the test system is Aspergillus fumigatus. The test can be described thus: Antifungal activity against Aspergillus fumigatus MTCC 343 assessed as zone of inhibition at 100 ug/well measured after 48 hrs by agar well diffusion method. The format is functional. The conditions noted are these: MTCC 343, 48 h, read-out: DIZ.
The subject of test [10] is Staphylococcus aureus. The test can be described thus: Antibacterial activity against Staphylococcus aureus MTCC 3160 assessed as zone of inhibition at 100 ug/well measured after 24 hrs by agar well diffusion method. The format is functional. Particulars: MTCC 3160, 24 h, read-out: DIZ.
Test [11] relates to Streptococcus mutans. The test can be described thus: Antibacterial activity against Streptococcus mutans MTCC 497 assessed as zone of inhibition at 100 ug/well measured after 24 hrs by agar well diffusion method. It counts as functional. The conditions noted are these: MTCC 497, 24 h, read-out: DIZ.
The subject of test [12] is Salmonella typhi. As to the kind of experiment: Antibacterial activity against Salmonella typhi assessed as zone of inhibition at 100 ug/well measured after 24 hrs by agar well diffusion method. The format is functional, Salmonella enterica subsp. enterica serovar Typhi. Particulars: Salmonella enterica, read-out: DIZ.
Test [13] concerns Candida albicans. As to the kind of experiment: Antifungal activity against Candida albicans MTCC 3017 assessed as zone of inhibition at 100 ug/well measured after 48 hrs by agar well diffusion method. It counts as functional. The conditions noted are these: MTCC 3017, 48 h, read-out: DIZ.
The subject of test [14] is Aspergillus fumigatus. As to the kind of experiment: Antifungal activity against Aspergillus fumigatus MTCC 343 measured after 48 hrs by NCCL protocol based broth dilution method. The conditions noted are these: MTCC 343, 48 h. It counts as functional.
The test system of test [15] is Streptococcus mutans. The test can be described thus: Antibacterial activity against Streptococcus mutans MTCC 497 measured after 24 hrs by NCCL protocol based broth dilution method. The format is functional. The conditions noted are these: MTCC 497, 24 h.
Test [16] relates to Klebsiella pneumoniae. The test can be described thus: Antibacterial activity against Klebsiella pneumoniae MTCC 3384 measured after 24 hrs by NCCL protocol based broth dilution method. It counts as functional. Particulars: MTCC 3384, 24 h.

For `CC1(C)O[C@H]2O[C@@H]3COB(c4ccccc4F)O[C@@H]3[C@H]2O1`, the MIC came out at 250 µg/mL (≈ 850 µM) in the test with Micrococcus luteus [1]; 250 µg/mL (≈ 850 µM) in the test on Salmonella typhi [2]; 500 µg/mL (≈ 1700 µM) in the test on Candida albicans [3]; 125 µg/mL (≈ 425 µM) in the test with Salmonella paratyphi [4]; 125 µg/mL (≈ 425 µM) in the test with Staphylococcus aureus [5]; 500 µg/mL (≈ 1700 µM) with Aspergillus fumigatus [14]. For the same compound, the MIC in the test with Streptococcus mutans [15] was found to be 125 µg/mL (≈ 425 µM); with Klebsiella pneumoniae [16] it was 250 µg/mL (≈ 850 µM). In addition, the zone of inhibition at 100 µg/disc was 12 mm in the test with Klebsiella pneumoniae [6]; 8 mm in the test with Micrococcus luteus [7]; 9 mm in the test with Salmonella paratyphi [8]; 9 mm in the test on Aspergillus fumigatus [9]; 11 mm in the test with Staphylococcus aureus [10]; 12 mm in the test on Streptococcus mutans [11]. Also, the zone of inhibition at 100 µg/disc in the test on Salmonella typhi [12] and with Candida albicans [13] was 11 mm each time.
